# Data from ChEMBL document CHEMBL1159006, “Anti-HIV and cytotoxic alkaloids from Buchenavia capitata” (J Nat Prod, 1992).
# The source made the active and inactive calls. The rule behind the calls is not given here.
# Columns and labels:
# [1] = tested on: Human immunodeficiency virus 1; assay: Antiviral activity against HIV1 in human CEM-SS cells after 6 days; type: functional, organism-based
# [2] = tested on: CEM-SS; assay: Cytotoxicity against human CEM-SS cells; type: cell-based
# [3] = Cytotoxicity against human melanoma cells after 48 hrs by SRB assay; type: functional; conditions: Melanoma cell, read-out: LC50 (the source's name)
# [4] = molecular target: Protease (Human immunodeficiency virus 1) (UniProt Q9YQ12); assay: Inhibition of HIV1 protease expressed in Escherichia coli by immunoblotting
# Sequence of Protease (Human immunodeficiency virus 1) (Q9YQ12 as listed by the source): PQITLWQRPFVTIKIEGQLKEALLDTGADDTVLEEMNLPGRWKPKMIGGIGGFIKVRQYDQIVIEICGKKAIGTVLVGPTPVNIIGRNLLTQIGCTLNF
# [5] = tested on: Human immunodeficiency virus 1; assay: Antiviral activity against HIV1 in human C8166 cells; type: functional, organism-based
# [6] = tested on: Human immunodeficiency virus 2; assay: Inhibition of HIV2 reverse transcriptase
# [7] = tested on: Human immunodeficiency virus 1; assay: Antiviral activity against HIV1 3B in human H9 cells; type: functional, organism-based
# [8] = tested on: Escherichia coli; assay: DNA damaging activity against Escherichia coli BR513 containing lysogenic lambda-lacZ fusion phage at 1 mg/ml by biochemical prophage induction assay; type: functional, organism-based
# [9] = tested on: Human immunodeficiency virus 1; assay: Antiviral activity against HIV1 RF in human MT2 cells; type: functional, organism-based
# [10] = tested on: Human immunodeficiency virus 2; assay: Antiviral activity against HIV2 NIH-DZ assessed as cytoprotection; type: functional, organism-based
# [11] = molecular target: Human immunodeficiency virus type 1 reverse transcriptase (Human immunodeficiency virus 1) (UniProt Q72547); assay: Inhibition of HIV1 reverse transcriptase
# [12] = tested on: Escherichia coli; assay: DNA damaging activity against Escherichia coli K12 at 1 mg/ml by SOS chromotest agar spot test; type: functional, organism-based
Compound,Activity [1] [%],IC50 [2] [µM],CC50 [3] [nM],Activity [4],Activity [5],Activity [6],Activity [7],Activity [8],Activity [9],Activity [10],Activity [11],Activity [12],"EC50 ([1]; Human immunodeficiency virus 1, CEM-SS, 144 h) [µM]"
COc1cc(O)c(C2CCCCN2C)c2oc(-c3ccccc3)cc(=O)c12 (stereo not given) [BUCHENAVIANINE],<50,5.7,–,–,–,–,–,–,–,–,–,–,–
CN1CCCCC1c1c(O)cc(O)c2c(=O)cc(-c3ccccc3)oc12 (stereo not given),–,0.66,100,inactive,inactive,inactive,inactive,inactive,inactive,inactive,inactive,inactive,–
O=c1cc(-c2ccccc2)oc2c(C3CCCCN3)c(O)cc(O)c12 (stereo not given),–,142,–,–,–,–,–,–,–,–,–,–,142
